Reference: patent US7067665B2, “Oxybenzamide derivatives useful for inhibiting factor Xa or Vlla” (Sanofi-Aventis Deutschland GmbH, priority 2000, dated 2006)
Where two headings read alike, the source gives them in different places.

Biological target: T1, human factor Xa (Homo sapiens, UniProt P00742)
T1 construct: 25 μl human factor Xa (Enzyme Research Laboratories, Inc; South Bend, Ind.); purchased Enzyme Research Laboratories, Inc; South Bend, Ind
Test: Factor Xa chromogenic assay (substrate S-2765);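 note: purified enzyme, compound preincubated with the enzyme for 10 min before substrate addition starts the reaction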
Type: biochemical
Details: read-out: Ki(FXa)

[1] = inhibition constant for inhibition of factor Xa, IC50 corrected for substrate competition, 25° C., enzyme 0.5 nM, substrate 140 μM

T1 sequence (P00742 235-488 limits assumed): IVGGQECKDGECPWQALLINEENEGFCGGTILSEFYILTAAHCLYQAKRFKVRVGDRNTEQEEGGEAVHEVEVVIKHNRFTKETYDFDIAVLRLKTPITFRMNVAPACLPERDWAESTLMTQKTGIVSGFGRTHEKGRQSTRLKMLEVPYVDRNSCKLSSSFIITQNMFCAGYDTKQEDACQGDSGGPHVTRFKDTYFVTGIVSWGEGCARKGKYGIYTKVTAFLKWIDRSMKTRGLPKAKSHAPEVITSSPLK
T1 sequence (P00742 41-179 partner limits assumed): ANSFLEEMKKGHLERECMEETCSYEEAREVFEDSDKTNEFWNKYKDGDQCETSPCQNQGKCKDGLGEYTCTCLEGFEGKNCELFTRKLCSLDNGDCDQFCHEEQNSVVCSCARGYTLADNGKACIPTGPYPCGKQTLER

Row | SMILES | Ki [1] [µM] | Ki [µM]
1 | COc1ccc(C(=O)NCCN2CCCCC2)cc1OCCc1ccc(Cl)cc1Cl [Example 16, 3-[2-(2,4-Dichloro-phenyl)-ethoxy]-4-methoxy-N-(2-piperidin-1-yl-ethyl)-benzamide] | 4.22 | 
2 | COc1cc(C(=O)NCC2CCN(c3ccncc3)CC2)cc(OCCc2ccc(Cl)cc2)c1Br [Example 224, 4-Bromo-3-[2-(4-chloro-phenyl)-ethoxy]-5-methoxy-N-(3,4,5,6-tetrahydro-2H-[1,4′]bipyridinyl-4-ylmethyl)-benzamide] |  | 0.02
3 | COc1ccc(C(=O)NCC2CC(c3ccncc3)=NO2)cc1OCCc1ccc(Cl)cc1Cl (centres unmarked) [Example 24, 3-[2-(2,4-Dichloro-phenyl)-ethoxy]-4-methoxy-N-(3-pyridin-4-yl-4,5-dihydro-isoxazol-5-ylmethyl)-benzamide] | 1.13 | 
4 | COc1ccc(C(=O)NCC2CCN(c3ccncc3)CC2)cc1NS(=O)(=O)c1cc2ccc(Cl)cc2s1 [Example 97, 3-(6-Chloro-benzo[b]thiophene-2-sulfonylamino)-4-methoxy-N-(3,4,5,6-tetrahydro-2H-[1,4′]bipyridinyl-4-ylmethyl)-benzamide] |  | 3.5
5 | O=C(NCC1CCN(c2ccncc2)CC1)c1cncc(OCCc2ccc(Cl)cc2Cl)c1 [Example 87] |  | 0.07
6 | COc1ccc(C(=O)N2CCN(CCN(C)C)CC2)cc1OCCc1ccc(Cl)cc1Cl [Example 197] |  | 6.03
7 | Cc1ccc(C(=O)N2CCN(Cc3cc[n+]([O-])cc3)CC2)cc1OCCc1ccc(Cl)cc1Cl [Example 17, {3-[2-(2,4-Dichloro-phenyl)-ethoxy]-4-methyl-phenyl}-[4-(1-oxy-pyridin-4-ylmethyl)-piperazin-1-yl]-methanone] | 0.407 | 
8 | O=C(NCC1CCN(c2ccncc2)CC1)c1cc(OCCc2ccc(Cl)cc2Cl)ccc1[N+](=O)[O-] [Example 84] | 4.88 | 
9 | COc1cc(C(=O)NCC2CCN(c3ccnc(C)c3)CC2)cc(OCCc2ccc(Cl)cc2Cl)c1Cl [Example 168] |  | 0.024
10 | O=C(NCC1CCN(c2ccncc2)CC1)c1cccc(S(=O)(=O)Nc2ccc(Cl)cn2)c1 [Example 99, 3-(5-Chloro-pyridin-2-ylsulfamoyl)-N-(3,4,5,6-tetrahydro-2H-[1,4′]bipyridinyl-4-ylmethyl)-benzamide] |  | 3.71
11 | COc1ccc(C(=O)N2CCN(c3ccncc3)CC2)cc1OCCc1ccc(Cl)cc1Cl [Example 3, {3-[2-(2,4-Dichlorophenyl)-ethoxy]-4-methoxy-phenyl}-(4-pyridin-4-yl-piperazin-1-yl)-methanone] | 5.41 | 
